Data taken from patent US20250263370A1 (Tay Therapeutics Limited, priority 2022, published 2025).
“And” between values parts separate entries of the source, which are not always exact repeats. Equal values may be shown once. “Also recorded” adds a separate entry of the source.

Test system: collagen-induced arthritis
Assay: Collagen-induced arthritis (CIA) model in rats: body weight, paw volume, clinical scores, clinical observations; for Average detailed clinical score, left hind limb: key of the grades not given here; for Average detailed clinical score, right hind limb: key of the grades not given here; for Detailed Clinical Scores, left forelimb: key of the grades not given here; for Detailed Clinical Scores, left hind limb: key of the grades not given here; for Detailed Clinical Scores, right forelimb: key of the grades not given here; for Detailed Clinical Scores, right hind limb: key of the grades not given here; for Detailed Clinical Scores, score: key of the grades not given here; for Mean overall clinical score ± SD: key of the grades not given here; for Overall clinical score: key of the grades not given here
Details: for Mean animal paw volume ± SD: group mean; for Overall clinical score: individual animals #1-8; for Detailed Clinical Scores, left forelimb / Detailed Clinical Scores, left hind limb / Detailed Clinical Scores, right forelimb / Detailed Clinical Scores, right hind limb / Detailed Clinical Scores, score: individual animals ID 1-8

CNC(=O)c1[nH]c(C(=O)NC2CCC2)cc1O[C@@H](C)c1ccccc1 (stereo in doubt) [Example 101, N^5-cyclobutyl-N^2-methyl-3-(1-phenylethoxy)-1H-pyrrole-2,5-dicarboxamide]
Animal paw volume Day 0 L (CIA rats, 30 mg/kg, Day 0, left paw, individual animals): 1.33 mL (2×) and 1.32 mL (3×) and 1.31 mL and 1.30 mL and 1.34 mL | Average animal paw volume percent change (CIA rats, 30 mg/kg, Day 0, right hind paw (R)): 0.00% | Animal paw volume Day 0 R (CIA rats, 30 mg/kg, Day 0, right paw, individual animals): 1.34 mL (2×) and 1.31 mL (2×) and 1.33 mL and 1.30 mL and 1.32 mL (2×) | Average animal paw volume percent change (CIA rats, 30 mg/kg, Day 6, left hind paw (L)): 0.76% | Animal paw volume Day 6 L (CIA rats, 30 mg/kg, Day 6, left paw, individual animals): 1.35 mL and 1.33 mL (3×) and 1.32 mL (3×) and 1.34 mL | Average animal paw volume percent change (CIA rats, 30 mg/kg, Day 6, right hind paw (R)): 0.75% | Animal paw volume Day 6 R (CIA rats, 30 mg/kg, Day 6, right paw, individual animals): 1.36 mL and 1.32 mL (2×) and 1.31 mL and 1.34 mL (2×) and 1.33 mL (2×) | Average animal paw volume percent change (CIA rats, 30 mg/kg, Day 12, left hind paw (L)): 1.33% | Animal paw volume Day 12 L (CIA rats, 30 mg/kg, Day 12, left paw, individual animals): 1.36 mL (2×) and 1.34 mL (2×) and 1.31 mL and 1.33 mL and 1.32 mL and 1.35 mL | Average animal paw volume percent change (CIA rats, 30 mg/kg, Day 12, right hind paw (R)): 2.87% | Animal paw volume Day 12 R (CIA rats, 30 mg/kg, Day 12, right paw, individual animals): 1.50 mL and 1.36 mL and 1.33 mL (4×) and 1.34 mL and 1.35 mL | Average animal paw volume percent change (CIA rats, 30 mg/kg, Day 13, left hind paw (L)): 2.76% | Animal paw volume Day 13 L (CIA rats, 30 mg/kg, Day 13, left paw, individual animals): 1.40 mL and 1.36 mL (2×) and 1.33 mL and 1.34 mL (2×) and 1.38 mL and 1.35 mL | Average animal paw volume percent change (CIA rats, 30 mg/kg, Day 13, right hind paw (R)): 4.15% | Animal paw volume Day 13 R (CIA rats, 30 mg/kg, Day 13, right paw, individual animals): 1.54 mL and 1.38 mL and 1.34 mL (2×) and 1.36 mL (3×) and 1.33 mL | Average animal paw volume percent change (CIA rats, 30 mg/kg, Day 14, left hind paw (L)): 2.39% | Animal paw volume Day 14 L (CIA rats, 30 mg/kg, Day 14, left paw, individual animals): 1.40 mL and 1.35 mL (2×) and 1.32 mL and 1.37 mL (2×) and 1.36 mL and 1.30 mL | Average animal paw volume percent change (CIA rats, 30 mg/kg, Day 14, right hind paw (R)): 3.83% | Animal paw volume Day 14 R (CIA rats, 30 mg/kg, Day 14, right paw, individual animals): 1.53 mL and 1.37 mL and 1.35 mL (2×) and 1.36 mL (3×) and 1.28 mL | Average animal paw volume percent change (CIA rats, 30 mg/kg, Day 15, left hind paw (L)): 10.45% | Animal paw volume Day 15 L (CIA rats, 30 mg/kg, Day 15, left paw, individual animals): 1.46 mL and 1.79 mL and 1.57 mL and 1.38 mL (2×) and 1.34 mL and 1.44 mL and 1.31 mL | Average animal paw volume percent change (CIA rats, 30 mg/kg, Day 15, right hind paw (R)): 12.13% | Animal paw volume Day 15 R (CIA rats, 30 mg/kg, Day 15, right paw, individual animals): 1.52 mL and 1.37 mL and 1.68 mL and 1.38 mL and 1.49 mL and 1.36 mL and 1.73 mL and 1.30 mL | Average animal paw volume percent change (CIA rats, 30 mg/kg, Day 18, left hind paw (L)): 29.38% | Animal paw volume Day 18 L (CIA rats, 30 mg/kg, Day 18, left paw, individual animals): 1.46 mL and 2.05 mL and 1.90 mL and 1.47 mL (2×) and 1.68 mL and 1.93 mL and 1.70 mL | Average animal paw volume percent change (CIA rats, 30 mg/kg, Day 18, right hind paw (R)): 23.54% | Animal paw volume Day 18 R (CIA rats, 30 mg/kg, Day 18, right paw, individual animals): 1.51 mL and 1.87 mL and 1.86 mL and 1.37 mL and 1.48 mL and 1.32 mL and 1.95 mL and 1.68 mL | Average animal paw volume percent change (CIA rats, 30 mg/kg, Day 19, left hind paw (L)): 33.52% | Animal paw volume Day 19 L (CIA rats, 30 mg/kg, Day 19, left paw, individual animals): 1.42 mL and 2.04 mL and 2.06 mL and 1.56 mL and 1.55 mL and 1.85 mL and 1.94 mL and 1.67 mL | Average animal paw volume percent change (CIA rats, 30 mg/kg, Day 19, right hind paw (R)): 32.36% | Animal paw volume Day 19 R (CIA rats, 30 mg/kg, Day 19, right paw, individual animals): 1.44 mL and 1.96 mL and 2.14 mL and 1.39 mL and 1.48 mL and 1.83 mL and 2.04 mL and 1.69 mL | Average animal paw volume percent change (CIA rats, 30 mg/kg, Day 21, left hind paw (L)): 37.92% | Animal paw volume Day 21 L (CIA rats, 30 mg/kg, Day 21, left paw, individual animals): 1.43 mL and 2.08 mL and 2.11 mL and 1.54 mL (2×) and 2.06 mL and 2.13 mL and 1.67 mL | Average animal paw volume percent change (CIA rats, 30 mg/kg, Day 21, right hind paw (R)): 36.08% | Animal paw volume Day 21 R (CIA rats, 30 mg/kg, Day 21, right paw, individual animals): 1.43 mL and 2.10 mL and 2.16 mL and 1.40 mL and 1.47 mL and 2.00 mL and 2.12 mL and 1.67 mL | overall effect on joint inflammation and clinical symptoms of CIA (CIA rats, 3, 10 and 30 mg/kg twice daily P.O. (groups 5-7)): ameliorated joint inflammation in a dose-dependent manner; also recorded: lower clinical scores; also recorded: dose-dependent effect in the amelioration of clinical symptoms associated with CIA; also recorded: function in a dose-dependent manner to limit and/or reduce the severity of CIA-related symptoms | Mean animal paw volume ± SD (Day 0, L paw, 3 mg/kg): 1.33 mL | Mean animal paw volume ± SD (Day 0, L paw, 10 mg/kg): 1.31 mL | Mean animal paw volume ± SD (Day 0, L paw, 30 mg/kg): 1.32 mL | Mean animal paw volume ± SD (Day 0, R paw, 3 mg/kg): 1.33 mL | Mean animal paw volume ± SD (Day 0, R paw, 10 mg/kg): 1.31 mL | Mean animal paw volume ± SD (Day 0, R paw, 30 mg/kg): 1.32 mL | Average detailed clinical score, left forelimb (Day 0, CIA rats, 3 mg/kg): 0.00 | Average detailed clinical score, left hind limb (Day 0, CIA rats, 3 mg/kg): 0.00 | Average detailed clinical score, right forelimb (Day 0, CIA rats, 3 mg/kg): 0.00 | Average detailed clinical score, right hind limb (Day 0, CIA rats, 3 mg/kg): 0.00 | Average detailed clinical score, score (Day 0, CIA rats, 3 mg/kg): 0.00 | Mean overall clinical score ± SD (Day 0, CIA rats, 3 mg/kg): 0 ± 0 | Overall clinical score (Day 0, CIA rats, 3 mg/kg): 0 | Average detailed clinical score, left forelimb (Day 0, CIA rats, 10 mg/kg): 0.00 | Average detailed clinical score, left hind limb (Day 0, CIA rats, 10 mg/kg): 0.00 | Average detailed clinical score, right forelimb (Day 0, CIA rats, 10 mg/kg): 0.00 | Average detailed clinical score, right hind limb (Day 0, CIA rats, 10 mg/kg): 0.00 | Average detailed clinical score, score (Day 0, CIA rats, 10 mg/kg): 0.00 | Mean overall clinical score ± SD (Day 0, CIA rats, 10 mg/kg): 0 ± 0 | Overall clinical score (Day 0, CIA rats, 10 mg/kg): 0 | Average detailed clinical score, left forelimb (Day 0, CIA rats, 30 mg/kg): 0.00 | Average detailed clinical score, left hind limb (Day 0, CIA rats, 30 mg/kg): 0.00 | Average detailed clinical score, right forelimb (Day 0, CIA rats, 30 mg/kg): 0.00 | Average detailed clinical score, right hind limb (Day 0, CIA rats, 30 mg/kg): 0.00 | Average detailed clinical score, score (Day 0, CIA rats, 30 mg/kg): 0.00 | Mean overall clinical score ± SD (Day 0, CIA rats, 30 mg/kg): 0 ± 0 | Mean animal paw volume ± SD (Day 6, L paw, 3 mg/kg): 1.34 mL | Mean animal paw volume ± SD (Day 6, L paw, 10 mg/kg): 1.32 mL | Mean animal paw volume ± SD (Day 6, L paw, 30 mg/kg): 1.33 mL | Mean animal paw volume ± SD (Day 6, R paw, 3 mg/kg): 1.35 mL | Mean animal paw volume ± SD (Day 6, R paw, 10 mg/kg): 1.32 mL | Mean animal paw volume ± SD (Day 6, R paw, 30 mg/kg): 1.33 mL | Average detailed clinical score, left forelimb (Day 6, CIA rats, 3 mg/kg): 0.00 | Average detailed clinical score, left hind limb (Day 6, CIA rats, 3 mg/kg): 0.00 | Average detailed clinical score, right forelimb (Day 6, CIA rats, 3 mg/kg): 0.00 | Average detailed clinical score, right hind limb (Day 6, CIA rats, 3 mg/kg): 0.00 | Average detailed clinical score, score (Day 6, CIA rats, 3 mg/kg): 0.00 | Mean overall clinical score ± SD (Day 6, CIA rats, 3 mg/kg): 0 ± 0 | Overall clinical score (Day 6, CIA rats, 3 mg/kg): 0 | Average detailed clinical score, left forelimb (Day 6, CIA rats, 10 mg/kg): 0.00 | Average detailed clinical score, left hind limb (Day 6, CIA rats, 10 mg/kg): 0.00 | Average detailed clinical score, right forelimb (Day 6, CIA rats, 10 mg/kg): 0.00 | Average detailed clinical score, right hind limb (Day 6, CIA rats, 10 mg/kg): 0.00 | Average detailed clinical score, score (Day 6, CIA rats, 10 mg/kg): 0.00 | Mean overall clinical score ± SD (Day 6, CIA rats, 10 mg/kg): 0 ± 0 | Overall clinical score (Day 6, CIA rats, 10 mg/kg): 0 | Average detailed clinical score, left forelimb (Day 6, CIA rats, 30 mg/kg): 0.00 | Average detailed clinical score, left hind limb (Day 6, CIA rats, 30 mg/kg): 0.00 | Average detailed clinical score, right forelimb (Day 6, CIA rats, 30 mg/kg): 0.00 | Average detailed clinical score, right hind limb (Day 6, CIA rats, 30 mg/kg): 0.00 | Average detailed clinical score, score (Day 6, CIA rats, 30 mg/kg): 0.00 | Mean overall clinical score ± SD (Day 6, CIA rats, 30 mg/kg): 0 ± 0 | Mean animal paw volume ± SD (Day 12, L paw, 3 mg/kg): 1.41 mL | Mean animal paw volume ± SD (Day 12, L paw, 10 mg/kg): 1.41 mL | Mean animal paw volume ± SD (Day 12, L paw, 30 mg/kg): 1.33 mL | Mean animal paw volume ± SD (Day 12, R paw, 3 mg/kg): 1.40 mL | Mean animal paw volume ± SD (Day 12, R paw, 10 mg/kg): 1.41 mL | Mean animal paw volume ± SD (Day 12, R paw, 30 mg/kg): 1.36 mL | Detailed Clinical Scores, left forelimb (Day 12, 3 mg/kg, CIA rats): 0 | Detailed Clinical Scores, left hind limb (Day 12, 3 mg/kg, CIA rats): 0 (7×) and 1 | Detailed Clinical Scores, right forelimb (Day 12, 3 mg/kg, CIA rats): 0 (6×) and 1 (2×) | Detailed Clinical Scores, right hind limb (Day 12, 3 mg/kg, CIA rats): 0 | Detailed Clinical Scores, score (Day 12, 3 mg/kg, CIA rats): 0 (5×) and 1 (3×) | Detailed Clinical Scores, left forelimb (Day 12, 10 mg/kg, CIA rats): 0 | Detailed Clinical Scores, left hind limb (Day 12, 10 mg/kg, CIA rats): 1 (2×) and 0 (6×) | Detailed Clinical Scores, right forelimb (Day 12, 10 mg/kg, CIA rats): 0 | Detailed Clinical Scores, right hind limb (Day 12, 10 mg/kg, CIA rats): 0 (7×) and 2 | Detailed Clinical Scores, score (Day 12, 10 mg/kg, CIA rats): 1 (2×) and 0 (5×) and 2 | Detailed Clinical Scores, left forelimb (Day 12, 30 mg/kg, CIA rats): 0 | Detailed Clinical Scores, left hind limb (Day 12, 30 mg/kg, CIA rats): 0 | Detailed Clinical Scores, right forelimb (Day 12, 30 mg/kg, CIA rats): 0 | Detailed Clinical Scores, right hind limb (Day 12, 30 mg/kg, CIA rats): 1 and 0 (7×) | Detailed Clinical Scores, score (Day 12, 30 mg/kg, CIA rats): 1 and 0 (7×) | Average detailed clinical score, left forelimb (Day 12, CIA rats, 3 mg/kg): 0.00 | Average detailed clinical score, left hind limb (Day 12, CIA rats, 3 mg/kg): 0.13 | Average detailed clinical score, right forelimb (Day 12, CIA rats, 3 mg/kg): 0.25 | Average detailed clinical score, right hind limb (Day 12, CIA rats, 3 mg/kg): 0.00 | Average detailed clinical score, score (Day 12, CIA rats, 3 mg/kg): 0.38 | Mean overall clinical score ± SD (Day 12, CIA rats, 3 mg/kg): 0 ± 1 | Overall clinical score (Day 12, CIA rats, 3 mg/kg): 0 (5×) and 1 (3×) | Average detailed clinical score, left forelimb (Day 12, CIA rats, 10 mg/kg): 0.00 | Average detailed clinical score, left hind limb (Day 12, CIA rats, 10 mg/kg): 0.25 | Average detailed clinical score, right forelimb (Day 12, CIA rats, 10 mg/kg): 0.00
